Measurements reported in the supplement of paper PMC10307832.

Columns and labels:
Assay in all cases: relative viability (nuclei count vs DMSO), 5 days (fraction); higher = more cells survive
JZL-184 + Trametinib = compound: C1CN(CCC1C(C2=CC3=C(C=C2)OCO3)(C4=CC5=C(C=C4)OCO5)O)C(=O)OC6=CC=C(C=C6)[N+](=O)[O-] [JZL-184] + CC(=O)Nc1cccc(-n2c(=O)n(C3CC3)c(=O)c3c(Nc4ccc(I)cc4F)n(C)c(=O)c(C)c32)c1 [Trametinib] (partner 0.02 µM)
Outline: (§1)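 Medians of duplicate plates are given as relative viability. That measure is the nuclei count in treated wells divided by the count in vehicle wells. Counts were taken on 4× images of lung cancer cell lines in 1536-well plates, 5 days after pin-tool dosing the day after seeding with one drug alone or a fixed anchor-drug dose plus five library-drug doses (not always all listed) in √10 steps.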

JZL-184 + Palbociclib = compound: C1CN(CCC1C(C2=CC3=C(C=C2)OCO3)(C4=CC5=C(C=C4)OCO5)O)C(=O)OC6=CC=C(C=C6)[N+](=O)[O-] [JZL-184] + CC(=O)c1c(C)c2cnc(Nc3ccc(N4CCNCC4)cn3)nc2n(C2CCCC2)c1=O [Palbociclib] (partner 0.5 µM)
Outline: as §1

JZL-184 + Luminespib = compound: C1CN(CCC1C(C2=CC3=C(C=C2)OCO3)(C4=CC5=C(C=C4)OCO5)O)C(=O)OC6=CC=C(C=C6)[N+](=O)[O-] [JZL-184] + CCNC(=O)c1noc(-c2cc(C(C)C)c(O)cc2O)c1-c1ccc(CN2CCOCC2)cc1 [Luminespib] (partner 0.01 µM)
Outline: as §1

JZL-184 + Lapatinib = compound: C1CN(CCC1C(C2=CC3=C(C=C2)OCO3)(C4=CC5=C(C=C4)OCO5)O)C(=O)OC6=CC=C(C=C6)[N+](=O)[O-] [JZL-184] + CS(=O)(=O)CCNCc1ccc(-c2ccc3ncnc(Nc4ccc(OCc5cccc(F)c5)c(Cl)c4)c3c2)o1 [Lapatinib] (partner 2 µM)
Outline: as §1

JZL-184 + Pictilisib = compound: C1CN(CCC1C(C2=CC3=C(C=C2)OCO3)(C4=CC5=C(C=C4)OCO5)O)C(=O)OC6=CC=C(C=C6)[N+](=O)[O-] [JZL-184] + CS(=O)(=O)N1CCN(Cc2cc3nc(-c4cccc5[nH]ncc45)nc(N4CCOCC4)c3s2)CC1 [Pictilisib] (partner 1 µM)
Outline: as §1

| Cell Line | relative viability (JZL-184 + Trametinib; first compound 0.04 µM) | relative viability (JZL-184 + Trametinib; first compound 0.4 µM) | relative viability (JZL-184 + Trametinib; first compound 1.265 µM) | relative viability (JZL-184 + Trametinib; first compound 4 µM) | relative viability (JZL-184 + Palbociclib; first compound 0.04 µM) | relative viability (JZL-184 + Palbociclib; first compound 0.4 µM) | relative viability (JZL-184 + Palbociclib; first compound 1.265 µM) | relative viability (JZL-184 + Palbociclib; first compound 4 µM) | relative viability (JZL-184 + Luminespib; first compound 0.04 µM) | relative viability (JZL-184 + Luminespib; first compound 0.4 µM) | relative viability (JZL-184 + Luminespib; first compound 1.265 µM) | relative viability (JZL-184 + Luminespib; first compound 4 µM) | relative viability (JZL-184 + Lapatinib; first compound 0.04 µM) | relative viability (JZL-184 + Lapatinib; first compound 0.4 µM) | relative viability (JZL-184 + Lapatinib; first compound 1.265 µM) | relative viability (JZL-184 + Lapatinib; first compound 4 µM) | relative viability (JZL-184 + Pictilisib; first compound 0.04 µM) | relative viability (JZL-184 + Pictilisib; first compound 0.4 µM) | relative viability (JZL-184 + Pictilisib; first compound 1.265 µM) | relative viability (JZL-184 + Pictilisib; first compound 4 µM) |
| --- | --- | --- | --- | --- | --- | --- | --- | --- | --- | --- | --- | --- | --- | --- | --- | --- | --- | --- | --- | --- |
| NCI-H2087 | 0.181 | 0.173 | 0.182 | 0.188 | 0.231 | 0.215 | 0.259 | 0.227 | 0.167 | 0.134 | 0.157 | 0.209 | 1.29 | 0.824 | 0.99 | 1.18 | 0.824 | 0.677 | 0.934 | 1 |
| NCI-H2126 | 0.506 | 0.603 | 0.602 | 0.503 | 0.329 | 0.357 | 0.359 | 0.345 | 1.06 | 0.876 | 0.922 | 0.92 | 0.755 | 0.779 | 0.768 | 0.764 | 0.498 | 0.499 | 0.514 | 0.5 |
| NCI-H2170 | 1.01 | 0.855 | 0.864 | 0.825 | 0.439 | 0.37 | 0.407 | 0.366 | 0.712 | 0.651 | 0.762 | 0.491 | 0.302 | 0.252 | 0.285 | 0.275 | 0.341 | 0.309 | 0.332 | 0.331 |
| NCI-H2228 | 0.465 | 0.472 | 0.704 | 0.629 | 0.947 | 0.511 | 0.842 | 0.768 | 0.142 | 0.1 | 0.168 | 0.122 | 1.37 | 0.796 | 1.03 | 1.15 | 0.235 | 0.311 | 0.309 | 0.518 |
| NCI-H2347 | – | 0.313 | 0.275 | 0.283 | – | 0.398 | 0.407 | 0.443 | 0.321 | 0.553 | 0.497 | 0.587 | 1.1 | 0.884 | 0.953 | 0.815 | 0.768 | 0.654 | 0.61 | 0.688 |
| NCI-H2405 | 0.703 | 0.664 | 0.69 | 0.45 | 0.594 | 0.409 | 0.541 | 0.489 | 0.598 | 0.764 | 0.796 | 0.734 | 1.17 | 1.04 | 1.21 | 0.96 | 0.531 | 0.444 | 0.493 | 0.486 |
| NCI-H3122 | 0.211 | 0.168 | 0.242 | 0.242 | 0.168 | 0.181 | 0.22 | 0.208 | 0.0989 | 0.0869 | 0.0901 | 0.11 | 0.959 | 0.916 | 1.01 | 1.08 | 0.678 | 0.602 | 0.59 | 0.581 |
| PC-3 [JPC-3] | 0.779 | 0.71 | 0.708 | 0.687 | 0.573 | 0.558 | 0.485 | 0.536 | 0.793 | 0.721 | 0.811 | 0.615 | 0.521 | 0.439 | 0.441 | 0.435 | 0.773 | 0.735 | 0.773 | 0.738 |
| PC-14 | 1.1 | 0.693 | 0.738 | 0.635 | 0.659 | 0.49 | 0.517 | 0.519 | 0.119 | 0.137 | 0.146 | 0.287 | 0.39 | 0.316 | 0.325 | 0.327 | 0.867 | 0.619 | 0.722 | 0.589 |
| RERF-LC-KJ | 0.952 | 0.868 | 0.876 | 0.781 | 1.17 | 1.14 | 1.17 | 0.982 | 1.34 | 1.37 | 1.31 | 1.2 | 0.961 | 0.835 | 0.874 | 0.772 | 0.508 | 0.513 | 0.676 | 0.47 |
| SK-LU-1 | 0.448 | 0.402 | 0.653 | 0.46 | 0.387 | 0.393 | 0.433 | 0.405 | 0.312 | 0.201 | 0.215 | 0.2 | 1.21 | 0.814 | 0.962 | 0.822 | 0.631 | 0.517 | 0.7 | 0.611 |
| SK-MES-1 | 0.623 | 0.524 | 0.609 | 0.5 | 0.372 | 0.311 | 0.316 | 0.297 | 0.913 | 0.765 | 0.874 | 0.726 | 0.424 | 0.434 | 0.43 | 0.415 | 0.348 | 0.408 | 0.389 | 0.349 |
| SW 1573 | 0.602 | 0.564 | 0.589 | 0.445 | 0.458 | 0.328 | 0.45 | 0.383 | 0.224 | 0.276 | 0.251 | 0.222 | 1.25 | 1.15 | 1.25 | 1.01 | 0.609 | 0.364 | 0.491 | 0.498 |
| UMC-11 | 0.891 | 0.679 | 0.736 | 0.646 | 0.327 | 0.339 | 0.366 | 0.35 | 1.26 | 0.992 | 1.05 | 1.04 | 1.26 | 0.898 | 1.05 | 0.947 | 1.16 | 0.808 | 0.984 | 0.824 |
